Measured values published in patent US12433959B2, “Injectable hydrogels for controlled release of immunomodulatory compounds” (THE BOARD OF TRUSTEES OF THE LELAND STANFORD JUNIOR …, priority 2018, dated 2025).

B1: ovalbumin (protein, UniProt P01012 2-386, looked up)
Ovalbumin: GSIGAASMEFCFDVFKELKVHHANENIFYCPIAIMSALAMVYLGAKDSTRTQINKVVRFDKLPGFGDSIEAQCGTSVNVHSSLRDILNQITKPNDVYSFSLASRLYAEERYPILPEYLQCVKELYRGGLEPINFQTAADQARELINSWVESQTNGIIRNVLQPSSVDSQTAMVLVNAIVFKGLWEKAFKDEDTQAMPFRVTEQESKPVQMMYQIGLFRVASMASEKMKILELPFASGTMSMLVLLPDEVSGLEQLESIINFEKLTEWTSSNVMEERKIKVYLPRMKMEEKYNLTSVLMAMGITDVFSSSANLSGISSAESLKISQAVHAAHAEINEAGREVVGSAEAGVDAASVSEEFRADHPFLFCIKHIATNAVLFFGRCVSP
notes: commonly used model antigen

Assay: Hydrodynamic radius (MALS) and diffusivity of cargo in PBS
Assay type: physicochemical
Conditions: for diffusivity value, D: corresponding to RH
Procedure: Values closer to 1 indicate more similar diffusivities of the OVA and Poly(I:C) (n=3). […] Values closer to 1 indicate that cargo diffusivity is limited by self-diffusion of the hydrogel (n=3).
OVA's hydrodynamic radius (RH) is 3.2 nm, corresponding to a diffusivity value, D, of 76.6 μm^2/s. Poly(I:C)'s was measured to be much larger, with an RH of 34.2 nm, using multi-angle light scattering (MALS), corresponding to a D value of 7.2 μm^2/s. This difference in size results in OVA having an over 10 times greater diffusivity than Poly(I:C) in PBS (FIG. 3C). […] The measured diffusivities for all experiments can be found in FIG. 16. With a standard injection volume in rodents (100 μL) and the release characteristics of PNP hydrogels, these OVA diffusivities correlate to release timeframes of approximately 2 and 3 weeks, respectively. Further, the ratio of OVA to Poly(I:C) diffusivities (DOVA/DPoly(I:C)) was 3.3 in the 1:5 gel, and only 1.4 in the 2:10 gel (FIG. 3C). When comparing the diffusivity of OVA to the self-diffusion of the hydrogel matrix (DOVA/DGel), which was determined by tracking the diffusivity of HPMC-C12 within the hydrogel, the ratio was 6.5 in the 1:5 gel, but only 4.7 in the 2:10 gel, while the ratio of Poly(I:C) to the hydrogel self-diffusion (DPoly(I:C)/DGel) was around 2 for the 1:5 gel and 3.5 for the 2:10 gel (FIG. 3D). […] The diffusion of OVA, however, is more limited by hydrogel self-diffusion in the 2:10 gel and appears to be small enough to diffuse more freely in the 1:5 gel (FIG. 3B). Accordingly, the diffusivity of both OVA and Poly(I:C) is restricted by the self-diffusion of the hydrogel network in the 2:10 gel and are thus similar to one another, enabling sustained co-delivery of the two cargo, despite their large difference in physicochemical properties.

Molecule | hydrodynamic radius (RH) [nm] | size of Poly(I:C) relative to OVA [times larger] | diffusivity value, D (in PBS) [μm^2/s] | diffusivity of OVA relative to Poly(I:C) (in PBS)
Polyinosinic-polycytidylic acid [Poly(I:C)] | 34.2 | 10 | 7.2 | 
B1 | 3.2 |  | 76.6 | over 10 times greater
